The results in this text go back to US7160903B2, “Sulfonylaminocarboxylic acids” (Sanofi-Aventis Deutschland GmbH, priority 1997, dated 2007).

pIC50: −log10 of the molar value.

In one data set the target is T1, stromelysin (MMP-3) (Homo sapiens, UniProt P08254).
T1 construct: enzymatic activity of the catalytic domains of human stromelysin and of neutrophil collagenase; made in house
The experiment in a line: Enzymatic activity of the catalytic domain of human stromelysin (fluorogenic substrate). It is filed as biochemical. To be noted: pH=6.5, 15 min preincubation, fluorescence 328 nm (ex)/393 nm (em). As for the experimental part: (§1) Preparation and determination of the enzymatic activity of the catalytic domains of human stromelysin and of neutrophil collagenase:
(§2) The enzymes stromelysin (MMP-3) and neutrophil collagenase (MMP-8) were prepared according to Ye et al. (Biochemistry; 31 (1992) pages 11231–11235). To measure the enzyme activity or the enzyme inhibitor action, 70 μl of buffer solution and 10 μl of enzyme solution are incubated for 15 min with 10 μl of a 10% strength (v/v) aqueous dimethyl sulfoxide solution, which optionally contains the enzyme inhibitor. After addition of 10 μl of a 10% strength (v/v) aqueous dimethyl sulfoxide solution which contains 1 mmol/L of the substrate, the enzyme reaction is monitored by fluorescence spectroscopy (328 nm (ex)/393 nm(em)). The enzyme activity is shown as the extinction increase/min. The IC50 values listed in Table 2 are determined as those inhibitor concentrations which in each case led to a 50% inhibition of the enzyme.
(§3) The buffer solution contains 0.05% Brij (Sigma, Deisenhofen, Germany) and also 0.1 mol/L Tris/HCl, 0.1 mol/L NaCl, 0.01 mol/L CaCl2 and 0.1 mol/L piperazine-N,N′-bis[2-ethanesulfonic acid] (pH=6.5). The enzyme solution contains 5 μg/ml of one of the enzyme domains prepared according to Ye et al. The substrate solution contains 1 mmol/L of the fluorogenic substrate (7-methoxycoumarin-4-yl)acetyl-Pro-Leu-Gly-Leu-3-(2′,4′-dinitrophenyl)-L-2,3-diaminopropionyl-Ala-Arg-NH2 (Bachem, Heidelberg, Germany).

The target of data set [1] is T2, neutrophil collagenase (MMP-8) (Homo sapiens, UniProt P22894).
T2 construct: enzymatic activity of the catalytic domains of human stromelysin and of neutrophil collagenase; made in house
T2 sequence (P22894 100-262 limits assumed): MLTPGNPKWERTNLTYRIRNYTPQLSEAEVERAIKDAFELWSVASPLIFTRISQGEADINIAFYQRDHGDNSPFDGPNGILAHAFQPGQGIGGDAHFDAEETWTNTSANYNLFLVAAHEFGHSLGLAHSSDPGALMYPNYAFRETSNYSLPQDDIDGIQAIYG
Briefly: Enzymatic activity of the catalytic domain of neutrophil collagenase (fluorogenic substrate). It is filed as biochemical. To be noted: pH=6.5, 15 min preincubation, fluorescence 328 nm (ex)/393 nm (em), read-out: Neutr. collagenase IC50. How it is done:
as §1, §2, §3

T1 sequence (P08254 100-272 limits assumed): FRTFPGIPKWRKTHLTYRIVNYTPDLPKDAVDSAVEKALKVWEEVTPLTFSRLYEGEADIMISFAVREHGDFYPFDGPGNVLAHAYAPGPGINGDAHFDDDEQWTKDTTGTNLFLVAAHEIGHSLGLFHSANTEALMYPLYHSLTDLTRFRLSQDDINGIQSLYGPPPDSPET

As a reminder, the pIC50 is the negative decadic logarithm of the IC50, by convention in mol/L. One may read the melting point as the temperature of the solid-liquid transition. Consider `Br.CN(C)c1ccc(-c2ccc(S(=O)(=O)N[C@@H](CC(=O)O)C(=O)O)cc2)cc1` [Example 40], for which the melting point is 121 to 127 °C. The pIC50 against stromelysin (MMP-3) is 7.15. In addition, in data set [1], the pIC50 is 8.70.

`CSCC[C@@H](NS(=O)(=O)c1ccc(-c2ccc(N(C)C)cc2)cc1)C(=O)O` [Example 11] displayed a melting point of 180 to 186 °C. For the same molecule, on stromelysin (MMP-3), the pIC50 was 7.05. Besides, the pIC50 in data set [1] is 8.52.

`N#Cc1ccc(NC(=O)CC[C@H](NS(=O)(=O)c2ccc(-c3ccccc3)cc2)C(=O)O)cc1` [Example 86] yielded a melting point of 220 °C. Besides, the pIC50 against stromelysin (MMP-3) was 6.52. Besides, the pIC50 in data set [1] is 8.00.

For `O=C(O)[C@@H](Cc1c[nH]c2ccccc12)NS(=O)(=O)c1ccc(-c2ccc(N3CCCC3)cc2)cc1` [Example 71], the melting point is > 145 °C (dec.). On stromelysin (MMP-3), this molecule had a pIC50 of 8.00. In addition, in data set [1], the pIC50 is 8.70.

For the molecule `O=C(CC[C@H](NS(=O)(=O)c1ccc(-c2ccccc2)cc1)C(=O)O)Nc1ccc(F)c(Cl)c1` [Example 96], the melting point was > 245 °C (dec.). The molecule also gave a pIC50 against stromelysin (MMP-3) of 6.22. In addition, the pIC50 in data set [1] is 7.70.

In the case of `O=C(O)[C@H](CCc1nc2ccccc2[nH]1)NS(=O)(=O)c1ccc(-c2ccccc2)cc1` [Example 93], the melting point was > 250 °C (dec.). On stromelysin (MMP-3), the pIC50 is 6.70. The pIC50 in data set [1] is 7.70.

Turning to `O=C(O)CC[C@H](NS(=O)(=O)c1ccc(-c2ccc(N3CCCC3)cc2)cc1)C(=O)O` [Example 77], the melting point was > 220 °C (dec.). Moreover, the pIC50 against stromelysin (MMP-3) is 8.40. The pIC50 in data set [1] is 8.40.

For the molecule `CSCC[C@@H](NS(=O)(=O)c1ccc(-n2nccn2)cc1)C(=O)O` [Example 67], the melting point is 155.5 to 156.5 °C. At stromelysin (MMP-3), this molecule had a pIC50 of 6.00. In addition, the pIC50 in data set [1] was 6.70.

`O=C(O)[C@@H](NS(=O)(=O)c1ccc(Oc2ccccc2)cc1)[C@@H](O)c1ccc2c(c1)OCO2` (racemic) [Example 35]: the melting point was 176 °C. Also, the pIC50 at stromelysin (MMP-3) was 7.00. Moreover, the pIC50 in data set [1] is 8.00.

Regarding `CN(C)c1ccc(-c2ccc(S(=O)(=O)N[C@@H](CCC(=O)O)C(=O)O)cc2)cc1` [Example 70], the melting point is > 108 °C (dec.). The molecule also showed a pIC50 against stromelysin (MMP-3) of 7.00. For the same molecule, in data set [1], the pIC50 is 8.52.

`C[C@H](O)[C@H](NS(=O)(=O)c1ccc(Oc2ccccc2)cc1)C(=O)O` [Example 9] registered a melting point of 96 to 98 °C. This molecule also gave a pIC50 against stromelysin (MMP-3) of 6.52. In data set [1], the negative-log IC50 (pIC50) is 7.70.

Turning to `O=C(O)C(Cc1c[nH]c2ccc(F)cc12)NS(=O)(=O)c1ccc(-c2ccc(N3CCCC3)cc2)cc1` (racemic) [Example 78], the melting point is > 230 °C (dec.). Also, the pIC50 at stromelysin (MMP-3) was 7.70. Moreover, the pIC50 in data set [1] was 8.70.
